Test results published in PubChem BioAssay AID2060907 (Molecular Pharmacology Branch, DTP, NCI, 2025).
Several values for one entry are separate records, joined by “and”; a condition that tells them apart may be missing. Identical values can stand only once.

Test system: 388556-164-R-J1-PDC complex spheroid viability
Assay: Anticancer human tumor 388556-164-R-J1-PDC patient-derived colon adenocarcinoma cell line growth inhibition [RAS]
Conditions: for viability, T/C: stronger effect = lower value; active = viability on the fitted dose curve at most 10% of control; inactive = the rest
Outline: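 Multi-cell-type spheroids: tumor cells plus HUVEC endothelial cells and mesenchymal stem cells. RAS-pathway inhibitors were combined with targeted agents, each dosed in half-log steps down from clinical Cmax, or from 10 microM when Cmax was unknown.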

[1] = curve of first compound, second compound 0.00316 µM
[2] = curve of first compound, second compound 0.01 µM
[3] = curve of first compound, second compound 0.0316 µM
[4] = curve of first compound, second compound 0.1 µM
[5] = curve of first compound, second compound 0.316 µM
[6] = curve of first compound, second compound 1 µM
[7] = second compound 0.00316 µM, first compound 0.0316 µM
[8] = second compound 0.00316 µM, first compound 0.1 µM
[9] = second compound 0.00316 µM, first compound 0.316 µM
[10] = second compound 0.00316 µM, first compound 1 µM
[11] = second compound 0.00316 µM, first compound 3.16 µM
[12] = second compound 0.00316 µM, first compound 10 µM
[13] = second compound 0.01 µM, first compound 0.0316 µM
[14] = second compound 0.01 µM, first compound 0.1 µM
[15] = second compound 0.01 µM, first compound 0.316 µM
[16] = second compound 0.01 µM, first compound 1 µM
[17] = second compound 0.01 µM, first compound 3.16 µM
[18] = second compound 0.01 µM, first compound 10 µM
[19] = second compound 0.0316 µM, first compound 0.0316 µM
[20] = second compound 0.0316 µM, first compound 0.1 µM
[21] = second compound 0.0316 µM, first compound 0.316 µM
[22] = second compound 0.0316 µM, first compound 1 µM
[23] = second compound 0.0316 µM, first compound 3.16 µM
[24] = second compound 0.0316 µM, first compound 10 µM
[25] = second compound 0.1 µM, first compound 0.0316 µM
[26] = second compound 0.1 µM, first compound 0.1 µM
[27] = second compound 0.1 µM, first compound 0.316 µM
[28] = second compound 0.1 µM, first compound 1 µM
[29] = second compound 0.1 µM, first compound 3.16 µM
[30] = second compound 0.1 µM, first compound 10 µM
[31] = second compound 0.316 µM, first compound 0.0316 µM
[32] = second compound 0.316 µM, first compound 0.1 µM
[33] = second compound 0.316 µM, first compound 0.316 µM
[34] = second compound 0.316 µM, first compound 1 µM
[35] = second compound 0.316 µM, first compound 3.16 µM
[36] = second compound 0.316 µM, first compound 10 µM
[37] = second compound 1 µM, first compound 0.0316 µM
[38] = second compound 1 µM, first compound 0.1 µM
[39] = second compound 1 µM, first compound 0.316 µM
[40] = second compound 1 µM, first compound 1 µM
[41] = second compound 1 µM, first compound 3.16 µM
[42] = second compound 1 µM, first compound 10 µM
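Also: spheroids exposed to compound for 7 days before readout.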
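For viability, T/C in this document: 100% = DMSO vehicle control luminescence.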

CCC(CC)c1cc(NC2CCC(N)C2)n2nccc2n1 (stereo not given)
2.97 µM [middle of 4 runs]: IC50 (curve of compound)
inactive: viability, T/C (compound 0.0316 µM) 100% [middle of 4 runs] | viability, T/C (compound 0.1 µM) 96.7% [middle of 4 runs] | viability, T/C (compound 0.316 µM) 106% (2×) and 109% and 107% | viability, T/C (compound 1 µM) 108% [middle of 4 runs] | viability, T/C (compound 10 µM) 32% [middle of 4 runs]

C[C@@H](NC(=O)c1ncnc(N)c1Cl)c1ncc(C(=O)Nc2cc(C(F)(F)F)c(Cl)cn2)s1 + C=CC(=O)N1CCN(c2nc(OCC3CCCN3C)nc3c(F)c(-c4nc(N)cc(C)c4C(F)(F)F)c(Cl)cc23)C(C)C1
inactive: viability, T/C [7] 111% | viability, T/C [8] 114% | viability, T/C [9] 133% | viability, T/C [10] 111% | viability, T/C [11] 112% | viability, T/C [12] 104% | viability, T/C [13] 111% | viability, T/C [14] 115% | viability, T/C [15] 121% | viability, T/C [16] 114% | viability, T/C [17] 119% | viability, T/C [18] 98.4% | viability, T/C [19] 111% | viability, T/C [20] 118% | viability, T/C [21] 116% | viability, T/C [22] 117% | viability, T/C [23] 128% | viability, T/C [24] 101% | viability, T/C [25] 109% | viability, T/C [26] 109% | viability, T/C [27] 110% | viability, T/C [28] 117% | viability, T/C [29] 117% | viability, T/C [30] 91.8% | viability, T/C [31] 126% | viability, T/C [32] 122% | viability, T/C [33] 113% | viability, T/C [34] 125% | viability, T/C [35] 122% | viability, T/C [36] 97.1% | viability, T/C [37] 119% | viability, T/C [38] 116% | viability, T/C [39] 127% | viability, T/C [40] 133% | viability, T/C [41] 119% | viability, T/C [42] 97.7%
> 10 µM: IC50 [1] | IC50 [2] | IC50 [3] | IC50 [4] | IC50 [5] | IC50 [6]

CC(C)NCC(C(=O)N1CCN(c2ncnc3c2C(C)CC3O)CC1)c1ccc(Cl)cc1 (stereo not given) + C=CC(=O)N1CCN(c2nc(OCC3CCCN3C)nc3c(F)c(-c4nc(N)cc(C)c4C(F)(F)F)c(Cl)cc23)C(C)C1
inactive: viability, T/C [7] 117% | viability, T/C [8] 116% | viability, T/C [9] 107% | viability, T/C [10] 95.5% | viability, T/C [11] 102% | viability, T/C [12] 102% | viability, T/C [13] 106% | viability, T/C [14] 110% | viability, T/C [15] 103% | viability, T/C [16] 108% | viability, T/C [17] 90.9% | viability, T/C [18] 105% | viability, T/C [19] 97.2% | viability, T/C [20] 113% | viability, T/C [21] 110% | viability, T/C [22] 103% | viability, T/C [23] 105% | viability, T/C [24] 94.2% | viability, T/C [25] 108% | viability, T/C [26] 103% | viability, T/C [27] 99.5% | viability, T/C [28] 106% | viability, T/C [29] 95.9% | viability, T/C [30] 91% | viability, T/C [31] 106% | viability, T/C [32] 112% | viability, T/C [33] 105% | viability, T/C [34] 99.3% | viability, T/C [35] 111% | viability, T/C [36] 99.1% | viability, T/C [37] 106% | viability, T/C [38] 104% | viability, T/C [39] 118% | viability, T/C [40] 99.8% | viability, T/C [41] 100% | viability, T/C [42] 99.4%
> 10 µM: IC50 [1] | IC50 [2] | IC50 [3] | IC50 [4] | IC50 [5] | IC50 [6]
